# Numbering of substitutions follows the chain as printed.
# Experiments:
# Test in all cases: E. coli hemG growth inhibition by herbicide, AtPPO1 variant
# Type in all cases: cell-based
# Details in all cases: read-out: percentage growth inhibition
# AtPPO1 P413G = target: T1, AtPPO1 P413G (Arabidopsis thaliana, UniProt P55826, P413G)
# T1 construct: expressed in transfected cells; host or cells: E. coli BL21(DE3) hemG (pET24a, T7 promoter)
# T1 sequence (P55826 35-537 P413G): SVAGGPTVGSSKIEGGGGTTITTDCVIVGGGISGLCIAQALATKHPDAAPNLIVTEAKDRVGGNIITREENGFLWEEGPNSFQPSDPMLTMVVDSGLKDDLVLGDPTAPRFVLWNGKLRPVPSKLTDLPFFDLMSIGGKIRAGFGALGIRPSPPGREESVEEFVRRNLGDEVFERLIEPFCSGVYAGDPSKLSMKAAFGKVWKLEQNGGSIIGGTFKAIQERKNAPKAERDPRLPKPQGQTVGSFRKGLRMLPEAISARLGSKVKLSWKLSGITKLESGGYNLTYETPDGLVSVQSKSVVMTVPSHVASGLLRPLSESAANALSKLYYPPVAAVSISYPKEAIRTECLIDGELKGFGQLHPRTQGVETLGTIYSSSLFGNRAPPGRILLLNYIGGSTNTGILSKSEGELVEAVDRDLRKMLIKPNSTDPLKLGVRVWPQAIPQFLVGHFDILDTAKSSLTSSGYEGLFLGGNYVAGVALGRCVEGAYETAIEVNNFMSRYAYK
# Text: (§1) A pET24a plasmid containing a DNA sequence encoding a variant of PPO1 derived from Arabidopsis thaliana (AtPPO1), codon-optimised for expression in E. coli and under control of a T7 promoter, was synthesised by Twist Bioscience (SEQ ID NO:3). This plasmid was used as the basis of a Site Saturation Variant Library (SSVL) that substituted the codons at 352 amino acid positions for codons that encoded one of the other 19 amino acids, or removed the codon altogether, resulting in a translation product with a deletion at that position.
# (§2) The SSVL was batch-transformed by electroporation into an E. coli BL21(DE3) hemG strain with the hemG gene replaced by CmR conferring resistance to chloramphenicol and spread onto LA supplemented with 50 μg/mL kanamycin, 25 μg/mL chloramphenicol and 20 μg/mL hematin. Each batch consisted of all the plasmids that contained variants at two sites.
# (§3) Colonies from batch transformations were inoculated into 500 μL of Terrific broth supplemented with 50 μg/mL kanamycin, 25 μg/mL chloramphenicol and 20 μg/mL hematin in 96-deepwell blocks. Cultures were grown for 24 hours at 37° C. with shaking at 250 rpm.
# (§4) Overnight cultures were centrifuged and the cell pellets resuspended with 500 μL of Terrific broth. The resuspended cultures were used at a ratio of 1:100 to inoculate a fresh 96-deepwell block containing 500 μL of Terrific broth supplemented with 0.1 mM IPTG, 50 μg/mL kanamycin, 25 μg/mL chloramphenicol and 6.25 ppm of herbicide […] or E or 0.78 ppm herbicide B or DMSO. Assay cultures were grown for 24 hours at 37° C. with shaking at 250 rpm with the OD600 being measured at 24 hours post inoculation. Strains that grew in both DMSO and herbicide were determined to be herbicide tolerant with the percentage of growth inhibition being calculated as below: […]
# AtPPO1 Q272T = target: T2, AtPPO1 Q272T (Arabidopsis thaliana, UniProt P55826, Q272T)
# T2 construct: expressed in transfected cells; host or cells: E. coli BL21(DE3) hemG (hemG replaced by CmR), pET24a plasmid
# T2 sequence (P55826 35-537 Q272T): T1 sequence (P55826 35-537 P413G) with Q238T, G379P
# Text: as §1, §2, §3, §4
# AtPPO1 Y361P = target: T3, AtPPO1 Y361P (Arabidopsis thaliana, UniProt P55826, Y361P)
# T3 construct: expressed in transfected cells; host or cells: E. coli BL21(DE3) hemG (pET24a, T7 promoter)
# T3 sequence (P55826 35-537 Y361P): T1 sequence (P55826 35-537 P413G) with Y327P, G379P
# Text: as §1, §2, §3, §4
# AtPPO1 Y426M = target: T4, AtPPO1 Y426M (Arabidopsis thaliana, UniProt P55826, Y426M)
# T4 construct: expressed in transfected cells; host or cells: E. coli BL21(DE3) hemG (pET24a, T7 promoter)
# T4 sequence (P55826 35-537 Y426M): T1 sequence (P55826 35-537 P413G) with G379P, Y392M
# Text: as §1, §2, §3, §4
compound,measurement,setting,value
"CC(C)N(C)S(=O)(=O)NC(=O)c1cc(-n2c(=O)cc(C(F)(F)F)n(C)c2=O)c(F)cc1Cl [Herbicide E, saflufenacil]",inhibition at 6.25 ppm,AtPPO1 P413G,59%
same,inhibition at 6.25 ppm,AtPPO1 Q272T,64%
same,inhibition at 6.25 ppm,AtPPO1 Y361P,38%
same,inhibition at 6.25 ppm,AtPPO1 Y426M,17%
"C#CCN1C(=O)C(F)(F)Oc2cc(F)c(-n3c(=O)n(C)c(=S)n(C)c3=O)cc21 [Herbicide B, trifludimoxazin]",inhibition at 0.78 ppm,AtPPO1 P413G,16%
same,inhibition at 0.78 ppm,AtPPO1 Q272T,28%
same,inhibition at 0.78 ppm,AtPPO1 Y361P,28%
same,inhibition at 0.78 ppm,AtPPO1 Y426M,7%
"CCOC(=O)[C@]1(C)CC(c2cc(-n3c(=O)n(C)c(=S)n(C)c3=O)c(F)cc2Cl)=NO1 [Herbicide D, ethyl (5S)-3-[2-chloro-5-(3,5-dimethyl-2,6-dioxo-4-thioxo-1,3,5-triazinan-1-yl)-4-fluoro-phenyl]-5-methyl-4H-isoxazole-5-carboxylate]",inhibition at 6.25 ppm,AtPPO1 P413G,32%
same,inhibition at 6.25 ppm,AtPPO1 Q272T,23%
same,inhibition at 6.25 ppm,AtPPO1 Y361P,36%
same,inhibition at 6.25 ppm,AtPPO1 Y426M,25%

# — patent publication US20260297542A1, “HERBICIDE RESISTANT PLANTS” (SYNGENTA CROP PROTECTION AG, priority 2023, published 2026)
